Columns and labels:
[1] = test system: caspase-9 in normal PrEC cells; assay: Activation of caspase-9 assay, PrEC; assay type: cell-based, human; details: compared to vehicle treated control cells
Method: FIGS. 7A and 7B show the activation of caspase-9 by embelin in PC-3 prostate cancer cells and its selectivity in normal prostate epithelial cells. 1×10^6 PC-3 or PrEC cells per well in 6-well culture plates were treated with embelin for 48 hours. An additional control was prepared by adding the pan-caspase inhibitor Z-VAD-FMK (2 uM final) 5 min before adding embelin, to inhibit caspase activation. The cells were collected and stained of active caspase-9 by CaspGLOW Red Active Caspase-9 Staining Kit, and analyzed by flow cytometry in PI channel.
1×10^6 PC-3 cells per well in 6-well culture plates, were treated with various concentrations of embelin, or the same amount of solvent DMSO as vehicle control, for up to 48 hr. An additional control was prepared by adding the pan-caspase inhibitor Z-VAD-FMK (1 uM final) 5 min before adding embelin, to inhibit caspase activation. The cells were collected for staining of active caspase-9 by CaspGLOW Red Active Caspase-9 Staining Kit (BioVision, Inc., Mountain View, Calif.) according to the manufacturer's instructions, with modification. […] The cells were resuspended in 0.3 ml Binding Buffer and analyzed by flow cytometry, using PI channel for active caspase-9 and FITC channel for apoptosis.

Jurkat-Vec cells [2] = assay: Annexin V-FITC apoptosis assay, Jurkat-Vec; assay type: cell-based; details: combination with etoposide, 15 hours
Method: (§1) FIGS. 8A and 8B present (A): Dose-dependent induction of apoptosis by etoposide in Jurkat cells transfected with vector control (Jurkat-Vec) and stably transfected with XIAP (Jurkat-XIAP cells); and (B): Induction of apoptosis by etoposide and embelin alone and in combination in Jurkat-Vec and Jurkat-XIAP cells. 1×10^6 Jurkat-XIAP or Jurkat-Vec cells per well in 6-well culture plates were treated with etoposide and embelin alone, or in combination for 15 hours, then stained with Annexin V-FITC and propidium iodide for apoptosis by flow cytometry. The results are shown as percent of Annexin V-FITC positive apoptotic cells.
(§2) PC-3 cells, 1×10^6 cells per well in 6-well culture plates, were treated in triplicate with various concentrations of embelin for 24 or 48 hours, then trypsinized and washed with PBS. For Jurkat cells, 1×10^6 Jurkat-XIAP or Jurkat-Vec cells per well in 6-well culture plates, were treated with etoposide, embelin, or both for 15 hours. For flow cytometry apoptosis assay, cells were stained with Annexin V-FITC and propidium iodide using the Annexin-V-FLUOS Kit (Roche) according to the manufacturer's instruction. The fluorescence of Annexin V-FITC and propidium iodide of individual cells was analyzed by FACScan. The results are shown as percent of Annexin V-FITC positive apoptotic cells.

Jurkat-Vec cells [3] = assay: Cell growth assay, Jurkat-Vec; assay type: cell-based; details: read-out: IC50 cell growth inhibition
Method: FIG. 9 presents inhibition of cell growth by embelin in Jurkat-Vec and Jurkat-XIAP cells. The cell growth results are expressed as the percent of control and calculated from the percent of absorbance of treated wells versus that of vehicle control.
Human prostate cancer cell lines (PC-3, LNCap, CL-1, DU-145), and normal human fibroblast cell line WI-38 were obtained from the American Type Culture Collection (ATCC), were grown and maintained in Dulbecco's modified Eagle's medium (DMEM) containing 10% FBS (Invitrogen Corporation). Normal human prostate epithelial cells (PrEC) were obtained from Clonetics (Cambrex Inc., MD) and maintained in the special medium provided by the company. Jurkat T-cells stably transfected with either empty vector (Jurkat-Vec), or XIAP (Jurkat-XIAP) and were cultured in RPMI 1640 containing 10% fetal calf serum and 1 ug/ml puromycin. Cell cultures were maintained in a humidified incubator at 37° C. and 5% CO2.
(§3) Cell growth was determined by the MTT-based assay using Cell Proliferation Reagent WST-1 (Roche) according to the manufacturer's instruction. […] Absorbance was measured with a plate reader at […] with correction at […]. The results are expressed as the percent of absorbance of treated wells versus that of vehicle control.

[4] = test system: normal human prostate epithelial cells (PrEC); assay: WST-1 cell growth inhibition assay, PrEC; assay type: cell-based; details: 120 h, WST-1, five days
Method: FIG. 5 presents inhibition of cell growth by embelin in prostate cancer cells (PC-3 and LnCap) and its selectivity in normal human prostate epithelial cells (PrEC) and normal human fibroblast cell line, WI-38. 5000 cells per well in a 96-well cell culture plate were treated with various concentrations of embelin in triplicate. Five days later, the cell growth was measured by the WST-1 cell growth assay kit […] The cell growth results are expressed as the percent of control and calculated from the percent of absorbance of treated wells versus that of vehicle control.
Human prostate cancer cell lines (PC-3, LNCap, CL-1, DU-145), and normal human fibroblast cell line WI-38 were obtained from the American Type Culture Collection (ATCC), were grown and maintained in Dulbecco's modified Eagle's medium (DMEM) containing 10% FBS (Invitrogen Corporation). Normal human prostate epithelial cells (PrEC) were obtained from Clonetics (Cambrex Inc., MD) and maintained in the special medium provided by the company. […]
as §3

Jurkat-XIAP cells = assay: Annexin V-FITC apoptosis assay, Jurkat-XIAP; assay type: cell-based; details: combination with etoposide, 15 hours
Method: as §1, §2

- IC50 (Jurkat-Vec cells [3]): 20 µM
SMILES: CCCCCCCCCCCC1=C(O)C(=O)C=C(O)C1=O [embelin]
- activation of caspase-9 in normal PrEC [1]: no significant effect
- activation of caspase-9 in normal PrEC ([1]; listed as Embelin): minimal effects
- effect on etoposide-induced apoptosis in combination, compared to etoposide alone (Jurkat-Vec cells [2]): did not increase
- IC50 [4]: 20.1 µM
- percentage of apoptotic cells in combination, compared to either drug alone (Jurkat-XIAP cells): significantly increased

Reference: US7910621B2, “Small molecule antagonists of XIAP family proteins” (The Regents of the University of Michigan, priority 2004, dated 2011)
